For test [1], the system named is MV4-11 human acute myeloid leukemia cell with FLT3-ITD mutation. Description: MV4-11 cell proliferation assay (CellTiter 96). It counts as cell-based. The note with it: Homo sapiens, MV4-11, 72 h, MV4-11 cells, 72 hours treatment, CellTiter96; read-out: anti-proliferation activity MV4-11 (FLT3-ITD), IC50 ranking. On the procedure:
(§1) Inhibitions of cell growths by compounds were measured using CellTiter™-96 assay. The cytotoxicities of compounds of the invention were evaluated in cell line panels with different signaling pathway dependencies, including MV4-11 human acute myeloid leukemia cell with FLT3-ITD mutation, Molm-14 human acute myeloid leukemia cell with FLT3-ITD mutation, THP-1 human acute monocytic leukemia cell with NRAS G12D mutation, A375 melanoma cell with BRAF V600E mutation, and HCC827 NSCLC cell with EGFR exon 19 deletion mutation.
The compounds disclosed herein were tested in MV4-11 cell proliferation assay to determine their cellular potencies against FLT3 signal pathway dependent cell growths. MV4-11 cells are human acute myeloid leukemia (AML) cells harboring ligand-independent FLT3-ITD activating mutation, which renders the abnormal proliferation of AML cells FLT3 signaling pathway dependent. Inhibition of FLT3 kinase activity will result in reduced growths and/or cell deaths. MV4-11 cells (catalog #CRL-9591) were obtained from the American Type Culture Collection (ATCC, Manassas, VA). Briefly, cells were grown in IMDM medium supplemented with 10% heat inactivated fetal bovine serum and incubated at 37° C. in 5% CO2 atmosphere. Cells were allowed to expand until reaching saturation, at which point they were sub-cultured or harvested for assay use.
(§2) MV4-11, Molm-14, THP-1, A375, and HCC827 cells were seeded into 96-well plates at 6500, 25000, 5000, 2000 and 8000 cells/well, respectively, and incubated at 37° C., 5% CO2 overnight. Then, these seeded cells were treated with increasing concentrations of the test compounds and incubated for another 72 hours. At the end of the incubation, CellTiter96® AQueous One Solution Reagent (Promega, […]) was added and incubated for the additional 2˜4 hours. Cell viability was determined by measuring absorbance at 490 nm using EMax® microplate reader (Molecular Devices, San Jose, CA, USA).

Test [2] deals with HCC827 NSCLC cell with EGFR exon 19 deletion mutation. Description: HCC827 cell proliferation assay (counter screen). The format is cell-based, human. As to conditions: Homo sapiens, HCC827 cells, 72 hours treatment, CellTiter96, read-out: anti-proliferation activity HCC827 EGFR Exon19 del, IC50 ranking. The procedure: as §1
HCC827 cells are non-small cell lung carcinoma (NSCLC) cells encoding EGFR exon 19 deletion mutation, which renders the cell growth dependent on EGFR signaling instead of class III RTKs signaling. HCC827 cells (catalog #CRL-2868) were obtained from the ATCC. Briefly, cells were cultured in RPMI1640 medium supplemented with 10% FBS and incubated at 37° C. in 5% CO2 atmosphere. Cells were allowed to expand until reaching saturation, at which point they were sub-cultured or harvested for assay use.
as §2
For orientation: Counterscreens check selectivity or assay interference.

Test [3] deals with phosphorylation of FLT3 and its down-stream effector STAT5. Description: Western blotting of p-FLT3 and p-STAT5 in MV4-11 cells. It counts as cell-based. As to conditions: Homo sapiens; at 30 nM treatment, 3 hours, FLT3-ITD positive MV4-11 leukemia cells; read-out: inhibition activity against phosphorylation of FLT3 and its down-stream effector STAT5. On the procedure:
The potent compounds of formula (I) in EXAMPLE 2 were evaluated, by western blotting assay, for their cellular potencies against phosphorylation of FLT3 and its down-stream effector STAT5 in MV4-11 leukemia cell line with constitutive activation of FLT3 signaling. For western blotting experiments, MV4-11 cells were cultured in IMDM medium containing 0.1% FBS overnight. On the assay day, three million cells were treated with or without compounds for 3 hours in 15 mL tubes. Then, the whole cell lysates were harvested, following extraction by adding 2×SDS Sample Buffer and boiling on hot plate at 105° C. for 15 minutes. The resulting cell lysates were separated by SDS-PAGE electrophoresis and transferred to PVDF membrane. Protein expression was detected using immunoblot with corresponding primary antibody and secondary antibody following the standard procedures. Antibody against p-FLT3 (Tyr-591), anti-rabbit IgG HRP-linked secondary antibody, and anti-mouse IgG HRP-linked secondary antibody were purchased from Cell Signaling Technology. Antibody against p-STAT5 (Tyr-694) was purchased from BD biosciences. Antibody against actin was purchased from R&D system. […] Band intensities of western blot were also quantified by ChemiDoc™ MP Imaging System. Relative intensities of bandscorresponding to drug treatments at a single concentration (30 nM) were compared to the DMSO control group. The percentage (%) inhibition at each drug concentration was calculated using the formula: Percentage(%)inhibition=(1−Relative intensity)×100.

For orientation: inhibition means how much of the control response was suppressed.

As for `CN(C)c1ccc(-c2cc3c(s2)Cc2c(-c4ccc5cnn(C)c5c4)n[nH]c2-3)cn1` [Compound 5, N,N-dimethyl-5-(3-(1-methyl-1H-indazol-6-yl)-1,4-dihydrothieno [2′,3′:4,5]cyclopenta[1,2-c]pyrazol-6-yl)pyridin-2-amine], the IC50 is 30 to 100 nM in test [1] and greater than 10000 nM in test [2].

For `c1cc(-c2cc3c(s2)Cc2c(-c4ccc5cn[nH]c5c4)n[nH]c2-3)ccc1CN1CCOCC1` [Compound 6, 4-(4-(3-(1H-indazol-6-yl)-1,4-dihydrothieno[2′,3′:4,5]cyclopenta[1,2-c]pyrazol-6-yl)benzyl)morpholine], the IC50 was less than 30 nM in test [1] and greater than 10000 nM in test [2]. Besides, the inhibition at 0.03 µM in test [3] is greater than 50%.

For the compound `C[C@@H]1CN(Cc2ccc(-c3cc4c(s3)Cc3c(-c5ccc6cn[nH]c6c5)n[nH]c3-4)cc2)C[C@H](C)O1` [Compound 7, (2S,6R)-4-(4-(3-(1H-indazol-6-yl)-1,4-dihydrothieno[2′,3′:4,5]cyclopenta [1,2-c]pyrazol-6-yl)benzyl)-2,6-dimethylmorpholine], the IC50 is less than 30 nM in test [1] and greater than 10000 nM in test [2]. Also, in test [3], the inhibition at 0.03 µM is greater than 50%.

Regarding `Cn1ncc2ccc(-c3n[nH]c4c3Cc3sc(-c5ccc(CN6CCOCC6)cc5)cc3-4)cc21` [Compound 8, 4-(4-(3-(1-methyl-1H-indazol-6-yl)-1,4-dihydro-thieno[2′,3′:4,5]cyclopenta [1,2-c]pyrazol-6-yl)benzyl) morpholine], the IC50 in test [1] was less than 30 nM; in test [2], greater than 10000 nM. In addition, in test [3], the inhibition at 0.03 µM was greater than 50%.

Take `C[C@@H]1CN(Cc2ccc(-c3cc4c(s3)Cc3c(-c5ccc6cnn(C)c6c5)n[nH]c3-4)cn2)C[C@H](C)O1` [Compound 9, (2S,6R)-2,6-dimethyl-4-((5-(3-(1-methyl-lH-indazol-6-yl)-1,4-dihydro-thieno[2′,3′:4,5]cyclopenta [1,2-c]pyrazol-6-yl)pyridin-2-yl)methyl) morpholine]: the IC50 in test [1] is less than 30 nM; in test [2], greater than 10000 nM. Further, the inhibition at 0.03 µM in test [3] was greater than 50%.

Turning to `Cn1ncc2ccc(-c3n[nH]c4c3Cc3sc(-c5ccc(CN6CCOCC6)nc5)cc3-4)cc21` [Compound 10, 4-((5-(3-(1-methyl-1H-indazol-6-yl)-1,4-dihydro-thieno[2′,3′:4,5]cyclopenta [1,2-c]pyrazol-6-yl)pyridin-2-yl)methyl)morpholine], the results for the IC50 in test [1] and in test [2] were less than 30 nM and greater than 10000 nM, respectively. Further, in test [3], the inhibition at 0.03 µM is greater than 50%.

With `Cc1ccc(-c2cc3c(s2)Cc2c(-c4ccc5cnn(C)c5c4)n[nH]c2-3)cn1` [Compound 11, 3-(1-methyl-1H-indazol-6-yl)-6-(6-methylpyridin-3-yl)-1,4-dihydrothieno [2′,3′:4,5]cyclopenta[1,2-c] pyrazole], the IC50 is less than 30 nM in test [1] and greater than 10000 nM in test [2].

As for `CN1CCN(Cc2cccc(-c3cc4c(s3)Cc3c(-c5ccc6cnn(C)c6c5)n[nH]c3-4)c2)CC1` [Compound 14, 3-(1-methyl-1H-indazol-6-yl)-6-(3-((4-methylpiperazin-1-yl)methyl)phenyl)-1,4-dihydrothieno [2′,3′:4,5]cyclopenta[1,2-c] pyrazole], the IC50 in test [1] was less than 30 nM; in test [2], greater than 10000 nM.

On to `Cc1cc(-c2cc3c(s2)Cc2c(-c4ccc5cnn(C)c5c4)n[nH]c2-3)ccc1CN1CCOCC1` [Compound 26, 4-(2-methyl-4-(3-(1-methyl-1H-indazol-6-yl)-1,4-dihydrothieno[2′,3′:4,5]cyclopenta[1,2-c]pyrazol-6-yl)benzyl)morpholine], for which the IC50 in test [1] is 100 to 300 nM; in test [2] it was greater than 10000 nM.

As to `Cn1ncc2ccc(-c3n[nH]c4c3Cc3sc(-c5ccc(CN6CCOCC6)c(C(F)(F)F)c5)cc3-4)cc21` [Compound 27, 4-(4-(3-(1-methyl-1H-indazol-6-yl)-1,4-dihydrothieno[2′,3′:4,5]cyclopenta[1,2-c]pyrazol-6-yl)-2-(trifluoromethyl)benzyl)morpholine], the IC50 in test [1] was 300 to 1000 nM; in test [2], greater than 10000 nM.

As for `CC(C)Cn1ncc2ccc(-c3n[nH]c4c3Cc3sc(-c5ccc(CN6CCOCC6)cc5)cc3-4)cc21` [Compound 35, 4-(4-(3-(1-isobutyl-1H-indazol-6-yl)-1,4-dihydro-thieno[2′,3′:4,5]cyclopenta [1,2-c]pyrazol-6-yl)benzyl)morpholine], the IC50 in test [1] is 100 to 300 nM; in test [2], greater than 10000 nM.

Regarding `Cn1ncc2ccc(-c3n[nH]c4c3Cc3sc(-c5ccc(CN6CCC(F)(F)C6)cc5)cc3-4)cc21` [Compound 67, 6-(4-((3,3-difluoro-pyrrolidin-1-yl)methyl)phenyl)-3-(1-methyl-1H-indazol-6-yl)-1,4-dihydro-thieno[2′,3′:4,5]cyclopenta [1,2-c]pyrazole], the figures for the IC50 in test [1] and in test [2] were 100 to 300 nM and greater than 10000 nM, respectively.

Regarding `Cn1ncc2ccc(-c3n[nH]c4c3Cc3sc(-c5cccc(OCCN6CCOCC6)c5)cc3-4)cc21` [Compound 70, 4-(2-(3-(3-(1-methyl-1H-indazol-6-yl)-1,4-dihydro-thieno[2′,3′:4,5]cyclopenta [1,2-c]pyrazol-6-yl)phenoxy)ethyl)morpholine], the IC50 in test [1] was 30 to 100 nM; in test [2], greater than 10000 nM.

Consider `CN(c1ccc(-c2cc3c(s2)Cc2c(-c4ccc5cnn(C)c5c4)n[nH]c2-3)cc1)C1CCOCC1` [Compound 73, N-methyl-N-(4-(3-(1-methyl-1H-indazol-6-yl)-1,4-dihydrothieno [2′,3′:4,5]cyclopenta [1,2-c]pyrazol-6-yl)phenyl)tetrahydro-2H-pyran-4-amine], for which the values for the IC50 in test [1] and in test [2] were 100 to 300 nM and greater than 10000 nM, respectively.

With `Cn1ncc2ccc(-c3n[nH]c4c3Cc3sc(-c5ccc(C=C6CCOCC6)cc5)cc3-4)cc21` [Compound 76, 3-(1-methyl-1H-indazol-6-yl)-6-(4-((tetrahydro-4H-pyran-4-ylidene)methyl)phenyl)-1,4-dihydrothieno[2′,3′:4,5] cyclopenta[1,2-c]pyrazole], the IC50 in test [1] is 300 to 1000 nM; in test [2], greater than 10000 nM.

Regarding `Cn1ncc2ccc(-c3n[nH]c4c3Cc3sc(-c5ccc(CC6CCOCC6)cc5)cc3-4)cc21` [Compound 77, 3-(1-methyl-1H-indazol-6-yl)-6-(4-((tetrahydro-2H-pyran-4-yl)methyl)phenyl)-1,4-dihydrothieno [2′,3′:4,5]cyclopenta [1,2-c]pyrazole], the IC50 in test [1] is 100 to 300 nM; in test [2], greater than 10000 nM.

Consider `Cn1ncc2ccc(-c3n[nH]c4c3Cc3sc(-c5ccc(CN6CCOCC6)cn5)cc3-4)cc21` [Compound 95, 4-((6-(3-(1-methyl-1H-indazol-6-yl)-1,4-dihydro-thieno[2′,3′:4,5]cyclopenta [1,2-c]pyrazol-6-yl)pyridin-3-yl)methyl) morpholine], for which the inhibition at 0.03 µM in test [3] was greater than 50%.

As to `Cn1ncc2ccc(-c3n[nH]c4c3Cc3sc(-c5ccc(CN6CC(F)(F)C6)cc5)cc3-4)cc21` [Compound 104, 6-(4-((3,3-difluoroazeti-din-1-yl)methyl)phenyl)-3-(1-methyl-1H-indazol-6-yl)-1,4-dihydrothieno [2′,3′:4,5]cyclopenta [1,2-c]pyrazole], the values for the IC50 in test [1] and in test [2] were 30 to 100 nM and greater than 10000 nM, respectively.
